Data taken from patent publication US6765014B1, “1-Acyl-7-nitroindoline derivatives, their preparation and their use as photocleavable precursors” (Medical Research Council, priority 1999, dated 2004).

Experiments:
glutamate ion channels = assay: Whole-cell patch clamp of cultured rat cerebellar granule neurones, with and without flash photolysis; assay type: cell-based
Method: The caged L-glutamate reagent 10 was tested in primary cultures of rat cerebellar granule neurones for its pharmacological actions and ability to effect photolytic activation of glutamate ion channels. All electrophysiological experiments were performed in Mg^2+-free mammalian Ringer's solution containing 100 μM glycine. Cells were voltage clamped at −65 mV with whole-cell patch clamp (17) and the glutamate sensitivity was established by responses to 20 ms pulses of L-glutamate, applied at a frequency of 0.25 Hz by iontophoresis from a 1-μm tipped glass pipette. […] The latter most likely arises from glutamate diffusion away from the photolyzed region. The time course of the initial decline may represent desensitization of non-NMDA glutamate channels.
During the slow decline there was a clear increase in the low frequency noise of the glutamate-activated current compared to baseline, consistent with gating of glutamate-activated ion channels.

[1] = Photolysis and product analysis (HPLC and quantitative amino acid analysis); assay type: physicochemical; settings: for Extent of photolysis (conversion): 0.5 mM, 25 mM ammonium phosphate pH 7.0, 3 min mercury arc lamp; for Stoichiometry of effector release upon photolysis: quantitative amino acid analysis of part-photolyzed solutions; for Measured concentration of glutamate as % of value calculated from extent of photolysis: 25 mM ammonium phosphate pH 7.0 ± 1 mM dithiothreitol
Method: Separate solutions of 10 (each 0.50 mM) in 25 mM ammonium phosphate, pH 7.0±1 mM dithiothreitol were irradiated in a 1-mm path length cell for 3 min using light from a mercury arc lamp which passed through Hoya 340 and Schott WG 305 filters before illuminating the cell. The extent of photolysis was determined by reverse-phase HPLC (mobile phase 25 mM Na phosphate, pH 6.0+10% MeOH, 1.5 ml/min). Quantification was based on peak heights compared to those of unphotolyzed controls. Aliquots of the photolyzed solutions were also subjected to quantitative amino acid analysis (see General Procedures).
Photolysis and product analysis for compound 21. A solution (0.5 mM) of 21 in 25 mM ammonium phosphate, pH 7.0 was irradiated as described for compound 10 and the photolyzed solution was quantified by reverse-phase HPLC and amino acid analysis.

[2] = Comparative photolysis in aqueous solution (Rayonet photochemical reactor, UV-VIS); assay type: physicochemical; settings: for Time required for half-maximal photolysis: pH 7 (5:95), 16×350 nm lamps; for Photolysis upon irradiation: near-UV light, UV-visible spectrum of irradiated solution, conditions for 24 not given
Method: Comparative photolysis of methyl 1-acetyl-7-nitroindoline-5-acetate 16 and 1-acetyl-4-methoxy-7-nitroindoline 25 in aqueous solution. Separate 1 ml samples of each compound [0.0896 mM in EtOH-25 mM Na phosphate, pH 7 (5:95)] in 1 cm path length optical cells were photolysed simultaneously for 0, 0.25, 0.5, 1, 2, 4, 6 and 8 min in a Rayonet photochemical reactor (16×350 nm lamps) and UV-VIS spectra were recorded after each irradiation period. FIGS. 4 and 5 show the time course of photolysis for 16 and 25 respectively.
Comparative photolysis of 1-acetyl-4-methoxy-7-nitroindoline 25 and 1-acetyl-4-methoxy-[…] 30 in aqueous solution. Separate 1 ml samples of each compound [0.0748 mM in EtOH-25 mM Na phosphate, pH 7 (5:95)] in 1 cm path length optical cells were photolysed simultaneously for 0, 0.25, 0.5, 1, 2, 4 and 6 min in a Rayonet photochemical reactor (16×350 nm lamps) and UV-VIS spectra were recorded after each irradiation period. FIGS. 6 and 7 show the time course of photolysis for 25 and 30 respectively.
With the relative merits of the substitution pattern on the aromatic ring established, the effect of the more powerfully electron-releasing 4-dimethylamino group was probed. The required indole 32 was prepared via the semicarbazone 31 from N,N-dimethyl-2-methyl-3-nitroaniline by a modified Leimgruber-Batcho procedure (30). […] Nitration as before with NaNO3-TFA gave a complex mixture, from which the 5-nitro compound 34 was separated by chromatography. To achieve isolation of the required 7-nitro isomer 36, the remaining material was hydrolysed and the products chromatographed. The 5,7-dinitroindoline 35 was obtained in pure form, together with fractions that contained the presumed 7-nitroindoline. Acetylation of these combined fractions provided the desired material 36 in poor overall yield. Its structure was confirmed by nOe enhancement of the 5-proton upon irradiation of the dimethylamino signal. In the related 5-nitro isomer 34, irradiation of the dimethylamino signal had no effect on the integrated intensity of either aromatic proton signal. […] The series of compounds described in this latter series of experiments could be coupled to effector moieties, e.g. as described for compounds 10 and 21. [drawing 8] [drawing 9] [drawing 10]

[3] = Hydrolytic stability of 1-acyl-7-nitroindolines (reverse-phase HPLC); assay type: physicochemical; settings: 62.5 mM Na phosphate, pH 12.01, 30° C.
Method: The extent of hydrolysis was determined by reverse-phase HPLC analysis (mobile phase 25 mM Na phosphate, pH 6.0+10% MeOH, 1.5 ml/min). […] Quantification was based on peak heights compared to those of unhydrolysed controls (to). First-order rate constants for hydrolysis were obtained from single exponential fits to the data.
In addition to the release rate of the bioeffector species following flash irradiation, important properties of any caged compound include stability in aqueous solution and its extent of photolysis upon a single flash irradiation.
In this context, hydrolytic stability refers to the amide bond. […] The use of the free acids avoided analytical complications from the much faster cleavage of the ester group.

[4] = Quantum yield estimation by laser flash irradiation (347 nm); assay type: physicochemical
Method: Quantum yield estimation for 10. A solution of 1-(2-nitrophenylethyl) phosphate and 10 (each 0.50 mM) together with dithiothreitol (5 mM) was prepared in 25 mM ammonium phosphate, pH 7.0. Aliquots of the solution ([…]) in a 1-mm path length cell were each subjected to one 50-ns flash from a frequency-doubled ruby laser, that delivered 347 nm light with an average energy of 90 mJ (range 83-104 mJ). The combined irradiated solutions were analyzed by reverse-phase HPLC (mobile phase 25 mM Na phosphate, pH 6.0+40% MeOH, 1.5 ml/min). Retention times were 4.2 and 7.2 min for 10 and 1-(2-nitrophenylethyl) phosphate respectively. Quantification was based on peak heights compared to those of the unphotolyzed control. Extinction coefficients at 347 nm used to calculate the relative quantum yields were 2720 and 510 M^−1cm^−1 for 10 and 1-(2-nitrophenylethyl) phosphate respectively. Photolysis and product analysis for compounds 10 and 18.
The product quantum yield (Qp) for photolysis of the glutamate derivative 10 was determined by laser flash irradiation (347 nm) of a solution containing 10 and 1-(2-nitrophenyl)ethyl phosphate (16) (both 0.5 mM in pH 7 phosphate buffer). Conversions by a single flash (˜90 mJ) were 9.7 and 23% respectively (reverse-phase HPLC), leading to Qp=0.043 by comparison with the known value (16) (0.54) for the caged phosphate and after correction for the different extinction coefficients at the irradiation wavelength. Although the value of Qp is low, the relatively high extinction coefficient at ˜350 nm (˜2700 M^−1cm^−1) compared to that of “classical” 2-nitrobenzyl-type caged compounds (˜600 M^−1cm^−1) enables similar photolytic efficiency to be achieved.

[5] = Relative photolysis efficiencies of 8 and 11 (xenon arc lamp, HPLC); assay type: physicochemical
Method: Relative photolysis efficiencies of 8 and 11. A solution containing both 8 and 11 (each 0.5 mM) in 25 mM Na phosphate, pH 7.0 was irradiated in a 1-mm path length cell using light from a 100 W xenon arc lamp which passed through Hoya 340 and Schott WG 305 filters before. illuminating the cell. The extent of photolysis of each compound was determined by reverse-phase HPLC analysis (mobile phase 10 mM Na phosphate, pH 6.0+50% MeOH, 1.5 mL/min). Retention times for 8 and 11 were 3.8 and 7.8 min respectively. After 2 min irradiation, the extents of conversion for compounds 8 and 11 were 40 and 16% respectively.
Upon comparative photolysis of the 1-glutaryl derivatives 8 and 11 in aqueous solutions at pH 7 and without excluding atmospheric oxygen, the bromo compound 11 was indeed converted ˜2.5-fold less efficiently than 8. Photolysis of 8 proceeded cleanly, as shown by an isosbestic point at 365 nm in spectra of a solution photolyzed for increasing times to at least 65% conversion, but the photoproduct of the protecting group was not the 7-nitroindoline 12 (λmax 450 nm) expected from the previous report (6a). […] Further confirmation of the presence of a nitroso group was that treatment of 13, R=CH2CO2Me) with a thiol readily abolished the 412 nm chromophore, presumably by conversion to the corresponding hydroxylamine (11, 12). […] In control experiments, photolysis of the glutaryl compound 8 in CH2Cl2-dioxane-H2O (2:3:0.05) cleanly gave the expected (6a) nitroindoline 12.

[6] = 0.0748 mM in EtOH-25 mM Na phosphate
[7] = 0.0896 mM in EtOH-25 mM Na phosphate

COC(=O)Cc1cc(N=O)c2[nH]ccc2c1 [Compound 13, Methyl 7-nitrosoindole-5-acetate]
Effect of photolysis by-product on glutamate receptors or resting membrane properties (glutamate ion channels; control experiments during and after photolysis): no adverse effect

COC(=O)Cc1cc2c(c([N+](=O)[O-])c1)N(C(=O)CCCN)CC2 [Compound 21, Methyl 1-(4-aminobutanoyl)-7-nitroindoline-5-acetate]
Extent of photolysis (conversion) [1]: 38%
Stoichiometry of effector release upon photolysis [1]: stoichiometric release of GABA

COc1c(C)cc([N+](=O)[O-])c2c1CCN2C(C)=O [Compound 30, 1-Acetyl-4-methoxy-5-methyl-7-nitroindoline]
Time required for half-maximal photolysis [2, 6]: ~0.9 min
Fold less efficient photolysis than 25 ([2]; aqueous solution): ~2 fold

COC(=O)Cc1cc2c(c([N+](=O)[O-])c1)N(C(=O)CC[C@H](N)C(=O)O)CC2 [Compound 10, Methyl 1-[S-(4-amino-4-carboxybutanoyl)]-7-nitroindoline-5-acetate]
Half-times for hydrolysis (amide hydrolysis) [3]: 6 h
Extinction coefficient at ~350 nm [4]: ~2700 M⁻¹ cm⁻¹
Conversion by a single flash ([4]; 347 nm laser flash, ~90 mJ, 0.5 mM, pH 7 phosphate buffer): 9.7%
Product quantum yield (Qp) ([4]; 347 nm, by comparison with caged phosphate, corrected for extinction coefficients): 0.043
Extinction coefficient at 347 nm ([4]; used to calculate relative quantum yields): 2720 M⁻¹ cm⁻¹
Extent of photolysis (conversion) [1]: ~35%
Measured concentration of glutamate as % of value calculated from extent of photolysis [1]: 90-94%
Stoichiometry of effector release upon photolysis [1]: 1:1 stoichiometry
Efficiency of glutamate release upon photolysis, 10 vs the salt of its free acid ([1]; separate experiments): equal efficiency
Effect on peak response to iontophoretic pulses of L-glutamate (glutamate ion channels; 1 mM in bath, no photolysis): did not diminish
Activation of current in granule neurones by unphotolyzed caged compound (glutamate ion channels; 1 mM in bath, −65 mV, no photolysis): no activation of current
Time scale of L-glutamate release by flash photolysis (glutamate ion channels; 1 ms light pulse): on the same time scale as the light pulse
Rise of inward current after flash photolysis, exponential half-time (mean) (glutamate ion channels; 1 ms xenon arc flash, Schott UG11 filter, n=8): 0.74 ms
Fast decline of inward current, mean half-time (glutamate ion channels; after 1 ms xenon arc flash): 2.9 ms
Activity at glutamate ion channels of NMDA- and non-NMDA-activated types (glutamate ion channels; unphotolyzed compound): inactive

CC(=O)N1CCc2c(N(C)C)ccc([N+](=O)[O-])c21 [Compound 36, 1-acetyl-4-N,N-dimethylamino-7-nitroindoline]
Photolysis upon irradiation [2]: no detectable photolysis
melting point: 177 to 178 °C

COC(=O)Cc1cc([N+](=O)[O-])c(OC)c2c1N(C(C)=O)CC2 [Compound 24, Methyl 1-acetyl-4-methoxy-5-nitroindoline-7-acetate]
Photolysis upon irradiation [2]: photostable

COC(=O)Cc1cc2c(c([N+](=O)[O-])c1)N(C(C)=O)CC2 [Compound 16, Methyl 1-acetyl-7-nitroindoline-5-acetate]
Time required for half-maximal photolysis [2, 7]: ~1.2 min

COc1ccc([N+](=O)[O-])c2c1CCN2C(C)=O [Compound 25, 1-Acetyl-4-methoxy-7-nitroindoline]
Time required for half-maximal photolysis [2, 6]: ~0.4 min
Time required for half-maximal photolysis [2, 7]: ~0.4 min
Fold more efficient photolysis than 30 ([2]; aqueous solution): ~2 fold
Fold more efficient photolysis than 16 ([2]; aqueous solution, equal concentration): ~3 fold

N[C@@H](CCC(=O)N1CCc2cc(CC(=O)O)cc([N+](=O)[O-])c21)C(=O)O [Compound 18, 1-[S-(4-amino-4-carboxybutanoyl)]-7-nitroindoline-5-acetic acid]
Extent of photolysis (conversion) [1]: ~51%
Measured concentration of glutamate as % of value calculated from extent of photolysis [1]: 97-108%

O=C(O)CCCC(=O)N1CCc2cc(Br)cc([N+](=O)[O-])c21 [Compound 11, 5-Bromo-1-glutaryl-7-nitroindoline]
Extent of conversion (photolysis) ([5]; after 2 min irradiation, 0.5 mM each, 25 mM Na phosphate pH 7.0, 100 W xenon arc lamp): 16%
Fold less efficient photolytic conversion than 8 ([5]; aqueous solution pH 7, atmospheric oxygen not excluded): ~2.5 fold
